Biological target: MetAP-2 (Homo sapiens, UniProt P50579)
Experiment: MetAP-2 activity measurement (coupled enzymatic reactions, Met-Arg-Ser substrate, dianisidine detection at 450 nm)
Format: biochemical
Conditions: Inhibition of MetAP-2; read-out: IC50 enzyme
Experimental: MetAP-2 Activity Measurement
The MetAP-2 activity is determined by coupling enzymatic reactions. The tripeptide Met-Arg-Ser (MAS) is employed as substrate. The methionine liberated is firstly converted into Metox and H2O2 by L-aminooxidase (AAO). In the second step, the peroxidase (POD) with the aid of the H2O2 catalyses the oxidation of the leukodye dianisidine to dianisidineox, the increase of which is detected photometrically at 450 nm.
MetAP-2 activity can be recorded continuously as kinetics. The reaction scheme illustrates that one mol of dianisidineox is formed per mol of methionene. The MetAP-2 enzyme activity can therefore be calculated directly as A absorption per time unit. Qualification of the MetAP-2 activity (mol of Met/time unit) is possible with the aid of the dianisidineox extinction coefficient.
The change in extinction per time unit is depicted graphically and a slope calculation is carried out in the visually linear region of the reaction.

Sequence of MetAP-2 (P50579 whole entry, species assumed): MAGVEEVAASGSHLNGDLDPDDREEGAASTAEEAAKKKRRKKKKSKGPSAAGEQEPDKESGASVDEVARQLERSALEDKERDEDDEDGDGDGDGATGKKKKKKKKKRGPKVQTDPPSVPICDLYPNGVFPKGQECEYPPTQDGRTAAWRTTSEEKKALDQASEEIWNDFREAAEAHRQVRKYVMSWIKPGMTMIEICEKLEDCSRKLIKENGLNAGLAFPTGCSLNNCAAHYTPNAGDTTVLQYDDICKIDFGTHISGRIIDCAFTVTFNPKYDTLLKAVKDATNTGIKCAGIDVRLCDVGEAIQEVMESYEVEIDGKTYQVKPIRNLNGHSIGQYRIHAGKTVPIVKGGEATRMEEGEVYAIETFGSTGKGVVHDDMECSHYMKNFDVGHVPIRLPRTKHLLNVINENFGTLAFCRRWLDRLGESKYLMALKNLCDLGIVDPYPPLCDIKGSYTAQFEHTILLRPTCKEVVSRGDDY

SMILES	IC50 [µM]
O=C(N1CCN(CCO)CC1)[C@@]1(O)CCN(c2ccccc2)C1=O [A57, (S)-3-Hydroxy-3-[4-(2-hydroxy-ethyl)piperazine-1-carbonyl]-1-phenylpyrrolidin-2-one]	> 10
O=C(NCCCn1ccnc1)[C@@]1(O)CCN(c2ccccc2)C1=O [A58, N-(3-Imidazol-1-ylpropyl)-(S)-3-hydroxy-2-oxo-1-phenylpyrrolidine-3-carboxamide]	> 10
CN(C)CCNC(=O)[C@@]1(O)CCN(c2ccccc2)C1=O [A59, N-(2-Dimethylaminoethyl)-(S)-3-hydroxy-2-oxo-1-phenylpyrrolidine-3-carboxamide]	> 10
O=C(NCCc1ccc(Oc2ccccc2)cc1)[C@@]1(O)CCN(c2ccccc2)C1=O [A60, N-[2-(4-Phenoxyphenyl)ethyl]-(S)-3-hydroxy-2-oxo-1-phenyl-pyrrolidine-3-carboxamide]	> 10
CN(C)CCN(C)C(=O)[C@@]1(O)CCN(c2ccccc2)C1=O [A61]	> 10
O=C(CNC(=O)[C@@]1(O)CCN(c2ccccc2)C1=O)N1CCOCC1 [A62, N-(2-Morpholin-4-yl-2-oxoethyl)-(S)-3-hydroxy-2-oxo-1-phenyl-pyrrolidine-3-carboxamide]	> 10
CN1CCCC1CCNC(=O)[C@@]1(O)CCN(c2ccccc2)C1=O (stereo partly drawn) [A63, N-[2-(1-Methylpyrrolidin-2-yl)ethyl]-(S)-3-hydroxy-2-oxo-1-phenyl-pyrrolidine-3-carboxamide]	> 10
CN(C)CCCNC(=O)[C@@]1(O)CCN(c2ccccc2)C1=O [A64, N-(3-Dimethylaminopropyl)-(S)-3-hydroxy-2-oxo-1-phenylpyrrolidine-3-carboxamide]	> 10
O=C(NCc1cc(F)cc(Cl)c1)C1(O)CCCN(c2ccccc2)C1=O (centres unmarked) [A65, N-(3-Chloro-5-fluorobenzyl)-3-hydroxy-2-oxo-1-phenylpiperidine-3-carboxamide]	0.01 to 1

Results, then the compound that gave them:

IC50 [µM]	SMILES
1 to 10	O=C(NCc1cc(F)cc(Cl)c1)[C@@]1(O)CCCCN(c2ccccc2)C1=O [A66, N-(3-chloro-5-fluorobenzyl)-(S)-3-hydroxy-2-oxo-1-phenylazepane-3-carboxamide]
> 10	O=C(NCc1cc(F)cc(Cl)c1)[C@]1(O)CCCCN(c2ccccc2)C1=O [A67, N-(3-chloro-5-fluorobenzyl)-(R)-3-hydroxy-2-oxo-1-phenylazepane-3-carboxamide]
0.01 to 1	O=C(NCc1cc(F)cc(Cl)c1)C1(O)CCN(c2ccc3cc[nH]c3c2)C1=O (centres unmarked) [A68, N-(3-Chloro-5-fluorobenzyl)-3-hydroxy-1-(1H-indol-6-yl)-2-oxo-pyrrolidine-3-carboxamide]
0.01 to 1	NC(=O)c1cccc(NC(=O)c2cccc(N3CCC(O)(C(=O)NCc4cc(F)cc(Cl)c4)C3=O)c2)c1 (centres unmarked) [A69, N-(3-Chloro-5-fluorobenzyl)-1-[3-(3-carbamoylphenylcarbamoyl)-phenyl]-3-hydroxy-2-oxo-pyrrolidine-3-carboxamide]
> 10	C/C=C/C(=O)[C@@]1(O)CCN(c2ccccc2)C1=O [A70, (S)-3-((E)-but-2-enoyl)-3-hydroxy-1-phenylpyrrolidin-2-one]
> 10	CC(=O)N1CCC2(CC1)CN(c1ccccc1)C(=O)[C@@]2(O)C(=O)NCc1cc(F)cc(Cl)c1 [A71, N-(3-Chloro-5-fluorobenzyl)-(S)-8-acetyl-4-hydroxy-3-oxo-2-phenyl-2,8-diazaspiro[4.5]decane-4-carboxamide]
0.01 to 1	O=C(c1cccc(N2CC[C@](O)(C(=O)NCc3cc(F)cc(Cl)c3)C2=O)c1)N1CCOCC1 [A72, N-(3-Chloro-5-fluorobenzyl)-(S)-3-hydroxy-1-[3-(morpholine-4-carbonyl)phenyl]-2-oxopyrrolidine-3-carboxamide]
0.01 to 1	CN(c1cccc(N2CCC(O)(C(=O)NCc3cc(F)cc(Cl)c3)C2=O)c1)S(C)(=O)=O (centres unmarked) [A73, N-(3-Chloro-5-fluorobenzyl)-3-hydroxy-1-[3-(methanesulfonyl-methylamino)phenyl]-2-oxo-pyrrolidine-3-carboxamide]

— patent US10093623B2, “Cyclic amides as MetAP-2 inhibitors” (MERCK PATENT GmbH, priority 2012, dated 2018)
